Reference: patent US6368812B1 (priority 1996, dated 2002)

What was measured:
human GALR3 [1] = target: T1, human GALR3 (Homo sapiens, UniProt O60755); assay: porcine 125I-galanin binding, LM(tk-) cells stably expressing human GALR3 (L-hGalR3-228)
T1 construct: The full-length human GALR3 gene contains 1107 bp within its coding region, encoding for a predicted protein of 368 aa; expressed in transfected cells
T1 sequence (O60755 1-368): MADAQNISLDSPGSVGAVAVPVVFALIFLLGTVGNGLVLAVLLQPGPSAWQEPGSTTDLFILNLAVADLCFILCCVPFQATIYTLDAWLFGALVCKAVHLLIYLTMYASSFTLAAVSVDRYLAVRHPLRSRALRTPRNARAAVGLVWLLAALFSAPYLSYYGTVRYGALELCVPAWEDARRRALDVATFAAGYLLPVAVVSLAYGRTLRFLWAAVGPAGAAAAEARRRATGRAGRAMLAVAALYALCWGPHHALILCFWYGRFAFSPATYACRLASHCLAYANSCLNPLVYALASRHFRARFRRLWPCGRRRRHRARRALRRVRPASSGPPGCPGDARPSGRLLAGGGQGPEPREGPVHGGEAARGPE

rat GALR3 [2] = target: T2, rat GALR3 (Rattus norvegicus, UniProt O88626); assay: porcine 125I-galanin binding, membranes of stable cell line 293-rGalR3-105; design: which comprises the entire coding region of rat GALR3; expressed in transfected cells; details: Ki (nM) Rat GALR3 293 #105, Table 9
T2 sequence (O88626 1-370): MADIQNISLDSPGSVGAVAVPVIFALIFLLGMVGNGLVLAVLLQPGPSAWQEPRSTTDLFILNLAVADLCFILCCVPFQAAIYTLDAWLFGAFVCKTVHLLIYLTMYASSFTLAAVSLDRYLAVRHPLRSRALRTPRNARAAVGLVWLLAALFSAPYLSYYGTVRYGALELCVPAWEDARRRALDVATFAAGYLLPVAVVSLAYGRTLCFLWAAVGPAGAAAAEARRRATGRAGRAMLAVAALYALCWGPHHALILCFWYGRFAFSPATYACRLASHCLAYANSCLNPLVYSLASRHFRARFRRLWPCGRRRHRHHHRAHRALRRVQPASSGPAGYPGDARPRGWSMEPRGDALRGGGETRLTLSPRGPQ

rat GALR1 = target: T3, rat GALR1 (Rattus norvegicus, UniProt Q62805); assay: biochemical; format: binding; details: Table 9; read-out: Ki (nM) Rat GalR1 CHO
T3 construct: expressed in transfected cells; host or cells: CHO
T3 sequence (Q62805 1-346): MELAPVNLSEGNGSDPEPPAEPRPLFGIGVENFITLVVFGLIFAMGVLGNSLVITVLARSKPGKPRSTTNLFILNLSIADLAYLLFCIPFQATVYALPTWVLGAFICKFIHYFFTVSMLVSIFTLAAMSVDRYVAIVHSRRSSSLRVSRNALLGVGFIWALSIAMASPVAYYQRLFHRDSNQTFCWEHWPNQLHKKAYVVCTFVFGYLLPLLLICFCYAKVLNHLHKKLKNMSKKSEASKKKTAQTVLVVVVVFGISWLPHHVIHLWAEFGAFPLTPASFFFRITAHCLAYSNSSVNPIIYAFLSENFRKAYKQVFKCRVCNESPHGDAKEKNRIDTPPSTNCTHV

Hum GALR1 = target: T4, Hum GALR1 (Homo sapiens, UniProt P47211); assay: porcine 125I-galanin binding assay, Hum GALR1 LM(tk-); details: Table 10
T4 sequence (P47211 1-349): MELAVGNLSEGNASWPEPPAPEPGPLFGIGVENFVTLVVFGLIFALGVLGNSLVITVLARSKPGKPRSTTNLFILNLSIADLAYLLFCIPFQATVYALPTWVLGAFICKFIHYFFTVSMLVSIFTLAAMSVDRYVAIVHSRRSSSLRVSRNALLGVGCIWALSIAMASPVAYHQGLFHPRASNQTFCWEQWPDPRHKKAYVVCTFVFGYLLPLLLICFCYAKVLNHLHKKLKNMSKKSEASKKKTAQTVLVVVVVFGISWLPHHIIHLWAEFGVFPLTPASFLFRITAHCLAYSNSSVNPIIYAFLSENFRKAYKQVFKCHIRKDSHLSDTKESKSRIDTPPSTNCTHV

rat GALR2 = target: T5, rat GALR2 (Rattus norvegicus, UniProt O08726); assay: porcine 125I-galanin binding assay, Rat GALR2 LMTK #4
T5 construct: expressed in transfected cells
T5 sequence (O08726 1-372): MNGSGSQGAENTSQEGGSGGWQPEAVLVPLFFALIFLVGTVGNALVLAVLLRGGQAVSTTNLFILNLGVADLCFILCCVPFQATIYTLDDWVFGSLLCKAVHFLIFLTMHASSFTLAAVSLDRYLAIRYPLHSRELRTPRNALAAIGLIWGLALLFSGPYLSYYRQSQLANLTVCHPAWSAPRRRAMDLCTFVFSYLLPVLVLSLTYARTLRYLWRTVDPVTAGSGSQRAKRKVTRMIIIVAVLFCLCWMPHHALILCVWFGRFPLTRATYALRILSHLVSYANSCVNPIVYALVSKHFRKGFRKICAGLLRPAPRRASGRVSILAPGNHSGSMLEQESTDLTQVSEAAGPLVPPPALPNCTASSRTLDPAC

Hum GALR2 = target: T6, Hum GALR2 (Homo sapiens, UniProt O43603); assay: porcine 125I-galanin binding assay, Hum GALR2 CHO
T6 construct: expressed in transfected cells; host or cells: CHO
T6 sequence (O43603 1-387): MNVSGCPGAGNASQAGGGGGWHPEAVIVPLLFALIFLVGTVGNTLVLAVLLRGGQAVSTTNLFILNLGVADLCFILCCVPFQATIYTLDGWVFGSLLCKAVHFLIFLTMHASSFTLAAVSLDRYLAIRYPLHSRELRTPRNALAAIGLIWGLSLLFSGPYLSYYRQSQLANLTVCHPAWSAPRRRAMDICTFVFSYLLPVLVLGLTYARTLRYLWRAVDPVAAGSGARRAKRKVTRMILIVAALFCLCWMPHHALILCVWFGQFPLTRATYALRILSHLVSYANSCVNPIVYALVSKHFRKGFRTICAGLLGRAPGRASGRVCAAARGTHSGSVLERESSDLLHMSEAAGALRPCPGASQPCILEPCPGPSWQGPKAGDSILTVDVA

human GALR3 [3] = target: T1, human GALR3; assay: voltage clamp currents in Xenopus oocytes expressing hGALR3 and GIRK1/GIRK4; format: cell-based
Protocol: Activation of inwardly rectifying currents that are sensitive to 300 μM Ba^++ signifies GALR3 coupling to a Gαi or Gαo pathway in the oocytes.
Oocytes were isolated as described above, except that 3 mg/mL collagenase was used to defolliculate the oocytes.
Experiments were carried out at room temperature.

rat GALR3 [4] = target: T2, rat GALR3; assay: porcine 125I-galanin binding, rat GALR3 transiently expressed in COS-7 cell membranes; design: which comprises the entire coding region of rat GALR3; expressed in transfected cells; host or cells: COS-7, transient; details: peptide displacement assays
Protocol: Assays were conducted at room temperature for 120 minutes, and leupeptin, aprotonin and phosphoramidon were omitted from the rat GALR3 assay, while bacitracin was added to 0.1%.

[5] = food intake after intracerebroventricular injection in rats; details: injected i.c.v.
Protocol: Measurement of food intake was performed for 3 hours after injection, but other protocols may also be used. Saline was injected as a control, but it is understood that other vehicles may be required as controls for some peptides and compounds. […] A preferred anatomic location for injection is the hypothalamus, in particular, the paraventricular nucleus.

[6] = Ki (nM) Hum GALR3 LMTK− #8, Table 10

| Compound | Ki (human GALR3 [1]; [6]) [nM] | Ki (rat GALR3 [2]) [nM] | Ki (rat GALR1) [nM] | Ki (Hum GALR1) [nM] | Ki (rat GALR2) [nM] | Ki (Hum GALR2) [nM] | EC50 (human GALR3 [3]) [nM] | agonist activity at human GALR3 in oocytes (human GALR3 [3]) | Ki (human GALR3 [1]; Ki (nM) Human L-hGalR3-228, Table 5, stable) [nM] | Ki (human GALR3 [1]; human GALR3LM (tk−) Ki (nM), Table 8) [nM] | binding affinity for rat GALR3 in words (rat GALR3 [4]) | feeding / food intake in words [5] |
| --- | --- | --- | --- | --- | --- | --- | --- | --- | --- | --- | --- | --- |
| CC[C@H](C)[C@H](NC(=O)[C@H](C)NC(=O)[C@H](Cc1c[nH]cn1)NC(=O)[C@@H]1CCCN1C(=O)CNC(=O)[C@H](CC(C)C)NC(=O)[C@H](CC(C)C)NC(=O)[C@H](Cc1ccc(O)cc1)NC(=O)CNC(=O)[C@H](C)NC(=O)[C@H](CO)NC(=O)[C@H](CC(N)=O)NC(=O)[C@H](CC(C)C)NC(=O)[C@@H](NC(=O)[C@H](Cc1c[nH]c2ccccc12)NC(=O)CNC(=O)[C@H](CCCNC(=N)N)NC(=O)[C@H](CCCCN)NC(=O)[C@H](CCC(=O)O)NC(=O)[C@H](CCCCN)NC(=O)[C@@H](NC(=O)[C@@H]1CCCN1C(=O)[C@H](CO)NC(=O)CNC(=O)[C@@H](N)CC(C)C)C(C)C)[C@@H](C)O)C(=O)N[C@@H](CC(=O)O)C(=O)N[C@@H](CC(N)=O)C(=O)N[C@@H](Cc1c[nH]cn1)C(=O)N[C@@H](CCCNC(=N)N)C(=O)N[C@@H](CO)C(=O)N[C@@H](Cc1ccccc1)C(=O)N[C@@H](Cc1c[nH]cn1)C(=O)N[C@@H](CC(=O)O)C(=O)N[C@@H](CCCCN)C(=O)N[C@@H](Cc1ccc(O)cc1)C(=O)NCC(=O)N[C@@H](CC(C)C)C(=O)N[C@@H](C)C(N)=O [(−)9 to (+)29 galanin, porcine] | 50.1 | 4.17 | 51.3 | 7.85 | 3.47 | 5.43 | – | – | – | – | – | – |
| CC[C@H](C)[C@H](NC(=O)[C@H](C)NC(=O)[C@H](Cc1c[nH]cn1)NC(=O)[C@@H]1CCCN1C(=O)CNC(=O)[C@H](CC(C)C)NC(=O)[C@H](CC(C)C)NC(=O)[C@H](Cc1ccc(O)c(I)c1)NC(=O)CNC(=O)[C@H](C)NC(=O)[C@H](CO)NC(=O)[C@H](CC(N)=O)NC(=O)[C@H](CC(C)C)NC(=O)[C@@H](NC(=O)[C@@H](Cc1c[nH]c2ccccc12)NC(=O)CN)[C@@H](C)O)C(=O)N[C@@H](CC(=O)O)C(=O)N[C@@H](CC(N)=O)C(=O)N[C@@H](Cc1c[nH]cn1)C(=O)N[C@@H](CCCNC(=N)N)C(=O)N[C@@H](CO)C(=O)N[C@@H](Cc1ccccc1)C(=O)N[C@@H](Cc1c[nH]cn1)C(=O)N[C@@H](CC(=O)O)C(=O)N[C@@H](CCCCN)C(=O)N[C@@H](Cc1ccc(O)c(I)c1)C(=O)NCC(=O)N[C@@H](CC(C)C)C(=O)N[C@@H](C)C(N)=O [D-Trp2-(d-iodo-L-Tyr9)-(3-iodo-L-Tyr26)-galanin] | 933 | 182 | – | – | – | – | – | – | – | – | – | – |
| CC[C@H](C)[C@H](NC(=O)[C@H](C)NC(=O)[C@H](Cc1c[nH]cn1)NC(=O)[C@@H]1CCCN1C(=O)CNC(=O)[C@H](CC(C)C)NC(=O)[C@H](CC(C)C)NC(=O)[C@H](Cc1ccc(O)cc1)NC(=O)CNC(=O)[C@H](C)NC(=O)[C@H](CO)NC(=O)[C@H](CC(N)=O)NC(=O)[C@H](CC(C)C)NC(=O)[C@@H](NC(=O)[C@H](Cc1c[nH]c2ccccc12)NC(=O)CNC(=O)[C@H](CCCNC(=N)N)NC(=O)[C@H](CCCCN)NC(=O)[C@H](CCC(=O)O)NC(=O)[C@H](CCCCN)NC(=O)[C@@H](NC(=O)[C@@H]1CCCN1C(=O)[C@@H](N)CO)C(C)C)[C@@H](C)O)C(=O)N[C@@H](CC(=O)O)C(=O)N[C@@H](CC(N)=O)C(=O)N[C@@H](Cc1c[nH]cn1)C(=O)N[C@@H](CCCNC(=N)N)C(=O)N[C@@H](CO)C(=O)N[C@@H](Cc1ccccc1)C(=O)N[C@@H](Cc1c[nH]cn1)C(=O)N[C@@H](CC(=O)O)C(=O)N[C@@H](CCCCN)C(=O)N[C@@H](Cc1ccc(O)cc1)C(=O)NCC(=O)N[C@@H](CC(C)C)C(=O)N[C@@H](C)C(N)=O [galanin −7 to +29, (−7) to (+29) galanin, porcine] | 28.8 | – | 36.3 | 6.84 | 3.16 | 4.95 | 1910 | evoked agonist activity | 29 | 28.8 | affinity comparable to that for porcine galanin | induces feeding |
